Results: US20240316051A1, “A PHARMACEUTICAL COMBINATION AND USE THEREOF” (Ascentage Pharma (Suzhou) Co., Ltd., priority 2021, published 2024)

Experiments:
[1] = tested on: NCI-H226 (BAP1mut, CDKN2Adel, FGFR high) xenograft; experiment: NCI-H226 xenograft model (Examples 18-19); format: in vivo, mice; details: Compound 2-5 50 mg/kg, orally, once per day, 35 days
Protocol: (§1) A subcutaneous xenograft tumor model of human tumor immunodeficient mice was established by cell inoculation: tumor cells in logarithmic growth phase were collected, counted, resuspended in 1×PBS, and the cell suspension concentration was adjusted to 2.5-5×10^7/mL. The tumor cells were inoculated subcutaneously in the right side of immunodeficient mice with a 1 ml syringe ([…]), 5-10×10^6/0.2 mL/mouse. All animal experiments were strictly in accordance with the specifications for the use and management of experimental animals in GenePharma Co., Ltd. and Suzhou Ascentage Pharma Co., Ltd. The calculation of relevant parameters refers to the Chinese NMPA “Guidelines for Non-Clinical Research Techniques of Cytotoxic Anti-tumor Drugs”.
Animal body weight and tumor size were measured twice weekly during the experiment. The state of the animal and the presence or absence of death were observed every day. The growth of tumor and the effects of treatment on normal behavior of animals were monitored routinely, specifically involving experimental animal activity, feeding and drinking, weight gain or loss, eyes, clothing hair and other abnormalities. The deaths and clinical symptoms observed during the experiment were recorded in the raw data. […] The plasma and tumor samples were frozen at −80° C. for ready-to-use.
(§2) Tumor volume (TV) is calculated as: TV=a×b^2/2, wherein a and b represent the length and width of the tumor to be measured, respectively.
(§3) The relative tumor volume (RTV) is calculated as: RTV=Vt/V1, wherein V1 is the tumor volume at the start of grouping and administration, and Vt is the tumor volume measured on the t day after administration. […]
Use of mRECIST (Gao et al., 2015) measured tumor responses included stable disease (SD), partial tumor regression (PR), and complete regression (CR), determined by comparing tumor volume change at day t to its baseline: tumor volume change (%)=(Vt−V1)/V1. […] For each time t, the average of tumor volume changes from t=1 to t was also calculated. […] Body weight of animals were monitored simultaneously. […]

[2] = tested on: BAP1 mut mesothelioma PDX model; experiment: BAP1 mut mesothelioma PDX model (Examples 15-17); format: in vivo, mice; details: orally, 28 days
Protocol: as §1
(§4) Animal body weight and tumor size were measured twice weekly during the experiment. The state of the animal and the presence or absence of death were observed every day. The growth of tumor and the effects of treatment on normal behavior of animals were monitored routinely, specifically involving experimental animal activity, feeding and drinking, weight gain or loss, eyes, clothing hair and other abnormalities. The deaths and clinical symptoms observed during the experiment were recorded in the raw data. All operations for administration and measurement of mouse body weight and tumor volume were performed in a clean bench. According to the requirements of the experimental protocol, after the end of the last administration, plasma and tumor tissues were collected, weighed and photographed. The plasma and tumor samples were frozen at −80° C. for ready-to-use.
as §2
(§5) The relative tumor volume (RTV) is calculated as: RTV=Vt/V1, wherein V1 is the tumor volume at the start of grouping and administration, and Vt is the tumor volume measured on the t day after administration.
(§6) The evaluation index of anti-tumor activity is the relative tumor proliferation rate T/C (%), and the calculation formula thereof is: relative tumor proliferation rate T/C (%)=(TRTV/CRTV)×100%, TRTV is the RTV of treatment group, CRTV is the RTV of solvent control group.
(§7) A dose of drug is considered to be severely toxic if the body weight of mouse is reduced by more than 20% or the number of drug-related deaths exceeds 20%.
(§8) According to the description by Clarke R., Issues in experimental design and endpoint analysis in the study of experimental cytotoxic agents in vivo in breast cancer and other models [J]. Breast Cancer Research & Treatment, 1997, 46(2-3): 255-278, synergy analysis was evaluated using the following formula: synergy factor=((A/C)×(B/C))/(AB/C); A=RTV value of drug A alone group; B=RTV value of drug B alone group; C=RTV value of the solvent control group, and AB=RTV value of the A and B combination group.
In this experiment, a BAP1 mut mesothelioma PDX model (Lide Biotech) was established to evaluate the anti-tumor effect of Compound 73. The dosing regimen was as follows: • Compound 73: 50 mg/kg, orally, once per day, for a total of 28 days; • Compound 73: 100 mg/kg, orally, once per day, for a total of 28 days;
In this experiment, a BAP1 mut mesothelioma PDX model (Lide Biotech) was established to evaluate the anti-tumor effect of Compound 73 in combination with Compound A-1. […]

[3] = tested on: NCI-H28(X1) (BAP1mut, UHRF1high, TP53WT, CDKN2Adel, FGFRlow, NF2WT) subcutaneous mesothelioma xenograft; experiment: NCI-H28(X1) subcutaneous mesothelioma xenograft model (Example 23); format: in vivo, mice; details: Compound C 50 mg/kg orally every other day, Compound 73 100 mg/kg orally once per day, 28 days, alone or combined
Protocol: as §1, §4, §2, §5
The evaluation index of anti-tumor activity is the relative tumor proliferation rate T/C (%), and the calculation formula thereof is: relative tumor proliferation rate T/C (%)=(TRTV/CRTV)×100%, TRTV is the RTV of treatment group, CRTV is the RTV of solvent control group. […]
as §8, with “group. […]” for “group.”

[4] = tested on: BAP1 mut mesothelioma PDX model; experiment: Subcutaneous BAP1 mut mesothelioma PDX model (Example 21); format: in vivo, mice; details: Compound 73 100 mg/kg orally once per day, Compound C 50 mg/kg orally every other day, 36 days; alone or combined
Protocol: as §1, §4, §2, §5, §6
(§9) Change of body weight (%)=(measured body weight-body weight at the start of grouping)/body weight at the start of grouping×100%.
as §7
In this experiment, subcutaneous BAP1 mut mesothelioma PDX model was established (Lide Biotech) to evaluate the anti-tumor effect of Compound 73 in combination with Compound C. […]

LnCap prostate xenograft = experiment: Subcutaneous LnCap prostate xenograft model (Example 25); format: in vivo, mice; details: day 17
Protocol: as §1, §4, §2, §5, §6, §7, §8
(§10) In this experiment, subcutaneous LnCap prostate xenograft model was established to evaluate the anti-tumor effect of Compound 73 in combination with Compound C. The dosing regimen was as follows: • Compound C: 100 mg/kg, orally, every other day, for day 1-day 9; 50 mg/kg, orally, every other day, for day 10-day 28; • Compound 73: 100 mg/kg, orally, once per day, for a total of 28 days;
(§11) The dosing regimen of each drug in the dosing regimen for the combination is the same as the dosing regimen for the single drug, for a total of 28 days.

[5] = tested on: H226 (BAP1mut, UHRF1high, TP53WT, CDKN2Adel, FGFRhigh) subcutaneous mesothelioma xenograft; experiment: H226 subcutaneous mesothelioma xenograft model (Example 22); format: in vivo, mice
Protocol: as §1, §4, §2, §5, §6, §9, §7
In this experiment, H226 (BAP1mut, UHRF1high, TP53WT, CDKN2Adel, FGFRhigh) subcutaneous mesothelioma xenograft model was established to evaluate the anti-tumor effect of Compound 73 in combination with Compound C. The dosing regimen was as follows: • Compound C: 50 mg/kg, orally, every other day, for a total of 39 days; • Compound 73: 50 mg/kg, orally, once per day, for a total of 39 days; • Compound 73: 100 mg/kg, orally, once per day, for a total of 39 days.

[6] = tested on: malignant pleural mesothelioma (MPM) PDX model (FGFR1high; BAP1mut); experiment: Subcutaneous malignant pleural mesothelioma (MPM) PDX model (Example 20); format: in vivo, mice; details: Compound 73 100 mg/kg, Compound C 50 mg/kg, each orally every other day, 76 days; alone or combined
Protocol: as §1, §4, §2, §3
Change of body weight (%)=(measured body weight-body weight at the start of grouping)/body weight at the start of grouping×100%. […]
as §8, with “group. […]” for “group.”

22RV1 prostate xenograft = experiment: Subcutaneous 22RV1 prostate xenograft model (Example 24); format: in vivo, mice
Protocol: as §1, §4, §2, §5, §6, §9, §7, §8
as §10, with “22RV1” for “LnCap”, “a total of 28 days;” for “day 1-day 9; 50 mg/kg, orally, every other day, for day 10-day 28;”
as §11

EED (1-441)-His protein = biological target: T1, EED (1-441)-His protein (Homo sapiens, UniProt O75530); experiment: EED-H3K27Me3 peptide competition binding assay by AlphaScreen; details: Table 4A, read-out: Alpha screen
T1 construct: 20 nM EED (1-441)-His protein
How it was run: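 EED(1-441)-His was preincubated 15 min with compound, then biotin-H3K27Me3(19-33) peptide added for 30 min; both were added as 20 nM solutions in 25 mM HEPES pH 8, 0.02% Tween-20, 0.5% BSA. Ni-chelate acceptor and streptavidin donor beads (10 μg/ml each final) were added for 1 h in the dark at RT. Signal read at 615 nm (680 nm excitation), normalised to controls and fitted to dose-response for IC50.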

[7] = tested on: human B cell lymphoma cell KARPAS422; experiment: Cell proliferation (WST-8), KARPAS422, 7 days; format: cell-based; details: KARPAS-422, 168 h, WST-8, Table 4A, read-out: Karpas Cell line
Protocol: Analysis of Cell Proliferation:
To assess the effect of PRC2 inhibition on cell growth, cells were seeded in 96-well cell culture plates at a density of 2 000-3 000 cells/well in 200 μL of culture medium, and treated with serially diluted compounds for 7 days at 37° C. in an atmosphere of 5% CO2. Cell growth was evaluated by a […] WST-8 assay (Dojindo Molecular Technologies) using a Tecan Infinite M1000 multimode microplate reader (Tecan, Morrisville, NC). The WST-8 reagent was added to the plate, incubated for 1-4 h, and read at 450 nm. The readings were normalized to the DMSO-treated cells, and the IC50 was calculated by nonlinear regression analysis using GraphPad Prism 6 software

T1 sequence (O75530 whole entry): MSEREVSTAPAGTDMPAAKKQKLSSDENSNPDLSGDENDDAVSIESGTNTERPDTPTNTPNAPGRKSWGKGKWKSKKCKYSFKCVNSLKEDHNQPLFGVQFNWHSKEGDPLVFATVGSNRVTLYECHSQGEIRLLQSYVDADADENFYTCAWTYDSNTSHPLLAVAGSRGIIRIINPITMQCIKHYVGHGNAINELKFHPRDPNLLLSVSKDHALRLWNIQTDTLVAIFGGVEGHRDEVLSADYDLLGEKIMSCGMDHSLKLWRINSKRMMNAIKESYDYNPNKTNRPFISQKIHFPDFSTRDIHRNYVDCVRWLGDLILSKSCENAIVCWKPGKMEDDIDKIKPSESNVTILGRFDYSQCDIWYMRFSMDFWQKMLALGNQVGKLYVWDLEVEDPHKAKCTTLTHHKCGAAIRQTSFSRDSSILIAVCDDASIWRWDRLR

## Cc1cc(Nc2ncc(Cl)c(Nc3ccccc3S(=O)(=O)C(C)C)n2)c(OC(C)C)cc1C1=CCN(C2CCOCC2)CC1 [Compound 2-5, 5-chloro-N^2-(2-isopropoxy-5-methyl-4-(1-(tetrahydro-2H-pyran-4-yl)-1,2,3,6-tetrahydropyridin-4-yl)phenyl)-N^4-(2-(isopropylsulfonyl)phenyl)pyrimidine-2,4-diamine]
[1]
  inhibition of tumor growth (in words): almost not effective in inhibiting tumor growth
[2]; Compound 2-5 50 mg/kg, once per day
  inhibition of tumor growth (in words): not effective in inhibiting tumor growth

## CCN1[C@@H](C(=O)NC23CCC(C(=O)O)(CC2)CC3)[C@H](c2cccc(Cl)c2F)[C@]2(C(=O)Nc3cc(Cl)ccc32)C12CCCCC2 [Compound C]
[3]
  T/C (%) @ D 29: 92.16%
[3]; mean ± SEM
  RTV@ D 29: 14.06 ± 1.22
[4]
  RTV @ D 36: 8.04
  T/C (%) @ D 36: 55.17%
LnCap prostate xenograft; LnCap xenograft, Compound 73 100 mg/kg orally once per day, Compound C 100 mg/kg/50 mg/kg orally every other day
  RTV@ D 17: 2.57 ± 0.24
LnCap prostate xenograft; LnCap xenograft, Compound 73 100 mg/kg, Compound C 100 mg/kg/50 mg/kg
  T/C(%) @ D 17: 57.46%
LnCap prostate xenograft; Compound C 100 mg/kg every other day day 1-9 then 50 mg/kg day 10-28, Compound 73 100 mg/kg once per day, orally, alone or combined
  T/C value: 57.46%
[5]; Compound C 50 mg/kg orally every other day, Compound 73 50 mg/kg orally once per day, alone or combined
  T/C (%) @ D 39: 49.45%
[5]; Compound C 50 mg/kg orally every other day, Compound 73 50 mg/kg orally once per day, alone or combined, mean ± SEM
  RTV @ D 39: 3.94 ± 0.69
[5]; single agents, 39 days (FIG. 10)
  antitumor activity (in words): moderate antitumor activity
[6]
  RTV @ D 76: 3.47
  T/C (%) @ D 76: 60%
22RV1 prostate xenograft; 22RV1 xenograft, day 26, Compound 73 100 mg/kg orally once per day, Compound C 50 mg/kg (table) orally every other day
  RTV@ D 26: 14.81 ± 4.35
22RV1 prostate xenograft; 22RV1 xenograft, day 26, Compound 73 100 mg/kg, Compound C 50 mg/kg (table)
  T/C(%) @ D 26: 93.39%
22RV1 prostate xenograft; 22RV1 xenograft, day 29
  RTV@ D 29: 18.54 ± 7.96
22RV1 prostate xenograft; day 26, Compound C 100 mg/kg orally every other day, Compound 73 100 mg/kg orally once per day, alone or combined
  T/C value: 93.39%

## Cc1ccc(C(=O)Nc2ccc(CN3CCN(C)CC3)c(C(F)(F)F)c2)cc1C#Cc1cnc2[nH]ncc2c1 [Compound A-1]
[2]; Compound A-1 10 mg/kg, every other day, end of study
  T/C (%): 74.8%

## CN1CCC(N2Cc3cc(F)ccc3-c3cnc(NCc4c(F)ccc5c4CCO5)n4cnc(c34)C2=O)CC1 [Compound 75, 7-fluoro-12-(((5-fluoro-2,3-dihydrobenzofuran-4-yl)methyl)amino)-4-(1-methylpiperidin-4-yl)-4,5-dihydro-3H-2,4,11,12a-tetraazabenzo[4,5] cycloocta[1,2,3-cd]inden-3-one]
EED (1-441)-His protein
  IC50: 1.72 nM
[7]
  IC50: 11.1 nM
